Data taken from patent US12194003B2, “Compositions for treating acne and dermatological conditions” (priority 2020, dated 2025).
Several values for one entry are separate records, joined by “and”; a condition that tells them apart may be missing. Equal entries are not always repeated. Where two headings read alike, the source gives them in different places.

How the values were obtained:
Primary human sebocytes = assay: Sebocyte ATP metabolism luminescence assay (Celltiter-Glo), percent luminescence reduction; assay type: cell-based; details: for % Luminescence Reduction (Repeat 1, 2, 3): niacinamide 0 μM
Description: The ability of various combinations of ingredients to increase ATP metabolism is evaluated via a sebocyte assay according to the following protocol. Immortalized human sebaceous gland cell lines (sebocytes) are a well-established model for studying acne. Primary human sebocytes Batch #13140680) were obtained from Celprogen™ and grown according to manufacturer's instructions. The cells were seeded at a concentration of 5000 cells per cm^2 in a tissue culture treated flask and incubated at 37° C. in a humidified incubator in the presence of 5% CO2 (all subsequent incubations were subject to these conditions). At 60-80% confluency, cells were passaged by detaching cells using TrypLE™ Express (Sigma). Cells were seeded in a black 96-well half area plate at a concentration of 5000 cells per well and allowed to equilibrate overnight at 37° C.
[…] Various concentrations of CBD (0 μM, 1 μM, 3 μM, 10 μM, 30 μM), niacinamide (0 μM, 4 μM, 10 μM, 20 μM, 40 μM), and urolithin A (0 μM, 3 μM, 10 μM, 30 μM, 100 μM) were evaluated in triplicate. The ability of each composition to increase ATP metabolism was determined using a luminescence assay (Celltiter-Glo™) according to manufacturer's instructions.
Table 11 reports the percent luminescence reductions for cells treated with each composition compared to cells that are not administered a composition of the disclosure. This value is calculated using the formula: (1−(treatment luminescence/control luminescence))*100. The luminescence measurements in this assay are proportional to the number of metabolically active cells in a sample. Cells that are metabolically active (e.g., have functioning mitochondria) consume ATP and convert luciferin to oxyluciferin.

sebocyte = assay: Sebocyte cell viability / cell death; assay type: cell-based, human; details: L-ergothioneine 1 nM to 100 μM; FIG. 6
Description: Sebocytes were incubated with compositions comprising CBD, niacinamide, urolithin A, or combination thereof. Various concentrations of CBD (0 μM, 1 μM, 3 μM, 10 μM, 30 μM), niacinamide (0 μM, 4 μM, 10 μM, 20 μM, 40 μM), and urolithin A (0 μM, 3 μM, 10 μM, 30 μM, 100 μM) were evaluated in triplicate. The ability of each composition to increase ATP metabolism was determined using a luminescence assay (Celltiter-Glo™) according to manufacturer's instructions.
These assays also tested the ability of the antioxidant L-ergothioneine at concentrations ranging from 1 nM to 100 μM to affect skin cell viability and influence mitochondrial function.

## O=c1oc2cc(O)ccc2c2ccc(O)cc12 [Urolithin A, 3,8-dihydroxybenzo[c]chromen-6-one]
Primary human sebocytes; 30 µM
  Luminescence Reduction of Urolithin A Alone: 16.7%
Primary human sebocytes; CBD 0 μM, urolithin A 30 μM
  % Luminescence Reduction (Repeat 1, 2, 3): 15% and 17% and 18%
Primary human sebocytes; CBD 0 μM, urolithin A 100 μM
  % Luminescence Reduction (Repeat 1, 2, 3): 25% and 35% and 27%
Primary human sebocytes; Urolithin A 3.0 μM
  Luminescence Reduction of Urolithin A Alone: 18.7%
Primary human sebocytes; Urolithin A 10.0 μM
  Luminescence Reduction of Urolithin A Alone: 13.3%
Primary human sebocytes; Urolithin A 100.0 μM
  Luminescence Reduction of Urolithin A Alone: 29.0%

## C[N+](C)(C)[C@@H](Cc1c[nH]c(=S)[nH]1)C(=O)[O-] [L-ergothioneine]
Primary human sebocytes; L-ergothioneine 1 nM to 100 μM, FIG. 6
  ATP metabolism: retain viability and ATP metabolism
sebocyte
  cell viability: retain viability

## C=C(C)[C@@H]1CCC(C)=C[C@H]1c1c(O)cc(CCCCC)cc1O [CBD, cannabidiol]
Primary human sebocytes; CBD 1 μM, urolithin A 0 μM
  % Luminescence Reduction (Repeat 1, 2, 3): 5% and 9%

## NC(=O)c1cccnc1 [Niacinamide, niacinamide]
Primary human sebocytes
  Luminescence Reduction of Niacinamide Alone: 3.0
Primary human sebocytes; Niacinamide 4.0 μM
  Luminescence Reduction of Niacinamide Alone: 3.0%
Primary human sebocytes; Niacinamide 10.0 μM
  Luminescence Reduction of Niacinamide Alone: 35.0%
Primary human sebocytes; Niacinamide 20.0 μM
  Luminescence Reduction of Niacinamide Alone: 52.0%
Primary human sebocytes; Niacinamide 40.0 μM
  Luminescence Reduction of Niacinamide Alone: 90.7%
Primary human sebocytes; niacinamide 4.0 μM
  Luminescence Reduction of Niacinamide Alone: 3.0
Primary human sebocytes; niacinamide 10.0 μM
  Luminescence Reduction of Niacinamide Alone: 35.0
Primary human sebocytes; niacinamide 20.0 μM
  Luminescence Reduction of Niacinamide Alone: 52.0
Primary human sebocytes; niacinamide 40.0 μM
  Luminescence Reduction of Niacinamide Alone: 90.7
